The data set can be described thus: gradient 5% acetonitrile 3 min, to 50% in 2 min, to 85% in 15 min, held 3 min, 100 µL/min. The note with it: column: Zorbax Extend-C18 2.1 x 50 mm; eluents: water / acetonitrile, 0.1% formic acid. Summed up: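 Pure standards were analyzed in mixtures of ~100 molecules using HPLC coupled to a quadrupole time-of-flight mass spectrometer, in both positive and negative ionization mode. Separation used a Zorbax Extend-C18 column (2.1 × 50 mm, 1.8 μm) at 100 μL/min, with water and acetonitrile each containing 0.1% formic acid. Dead and dwell volumes were 40 μL and 900 μL, and data were collected over 3 months. Retention time was read from computationally picked adduct peaks, each inspected manually.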
For the compound `O=C(Cc1c[nH]c2ccccc12)Nc1cc(-c2ccsc2)no1`, the RP-LC retention time came to 876 s.

`CCCCNC(=O)c1cn(-c2ccc(NC(=O)CC)cn2)cn1` returned an RP-LC retention time of 678 s.

With `COc1ccc(OCC(=O)N2CCc3c(c(C(=O)N4CCCC(C(=O)NC5CC5)C4)nn3C)C2)cc1` (configuration not stated), the RP-LC retention time was found to be 657 s.

Turning to `CCN1C(=O)c2cccnc2Sc2cc(CNC(=O)c3ccn(CC)n3)ccc21`, the RP-LC retention time amounted to 697 s.

The compound `O=C(Nc1ccccc1NC(=O)C1CC(=O)N(c2ccc(F)cc2)C1)c1ccsc1` (configuration not stated) displayed an RP-LC retention time of 739 s.

In turn, `COc1cc(OC)c(NC(=O)N2CC(Cc3nc(-c4cnccn4)no3)C2)cc1Cl` registered an RP-LC retention time of 733 s.

With `CCC(=O)N1CC(c2nc(-c3ccc(F)cc3)no2)C2(CCOCC2)C1` (configuration not stated), the RP-LC retention time worked out at 800 s.

Regarding `COCCn1c(CC2CCN(S(=O)(=O)c3ccc(OC)cc3)C2)nc2cccnc21` (configuration not stated), the RP-LC retention time stood at 668 s.

`CCOC(=O)c1cccc(N2C=C(C(=O)OC)S(=O)(=O)c3ccc(F)cc32)c1` had an RP-LC retention time of 908 s.

In the case of `CC(C(=O)NCCCN(C)Cc1ccccc1)n1c(=O)c(C(F)(F)F)nc2ccccc21` (configuration not stated), the RP-LC retention time amounted to 725 s.

For the compound `O=C(O)c1cc(-c2cccs2)[nH]c(=O)n1`, the RP-LC retention time came out at 551 s.

In the case of `CCCN1CCN(c2cc(C(=O)O)c3cc(NS(=O)(=O)c4cc(F)ccc4C)ccc3n2)CC1`, the RP-LC retention time amounted to 627 s.

In turn, `Cc1[nH]nc(-c2c(C)sc(C)c2S(=O)(=O)NCc2ccc(Cl)cc2)c1C` yielded an RP-LC retention time of 1100 s.

As for `CCn1cnc2cc(-c3noc(-c4cc(OC)c(OC)c(OC)c4)n3)ccc21`, the RP-LC retention time turned out to be 732 s.

Compound `Cn1c(=O)c(C(=O)NC2CCN(Cc3ccccc3)CC2)nc2cccnc21` displayed an RP-LC retention time of 574 s.

`CCOC(=O)c1cnn(-c2ccc(C(=O)NCc3ccco3)cn2)c1C`: the RP-LC retention time was found to be 804 s.

For `CCc1cccc(C)c1NC(=O)Cn1cnc2nc(N3CCCC(C(=O)NC4CC4)C3)sc2c1=O` (configuration not stated), the RP-LC retention time turned out to be 694 s.

With `CCn1cc(C2=CCN(S(=O)(=O)c3cccc(F)c3)CC2)c2cccnc21`, the RP-LC retention time is 1020 s.

For `COC[C@@H]1CN(Cc2cc(Cl)ccc2F)C[C@H]1c1nc(C)no1`, the RP-LC retention time is 639 s.

Compound `O=C(CSc1ccc(S(=O)(=O)c2ccccc2)nn1)Nc1ccc2c(c1)OCCO2` gave an RP-LC retention time of 821 s.

`COc1ccc(OCc2noc(CNC(=O)c3cc(C)oc3C)n2)cc1` returned an RP-LC retention time of 817 s.

In turn, `Cc1ccc2c(=O)c(C(=O)N3CCCC3)cn(CC(=O)NC3CCCCC3)c2n1` displayed an RP-LC retention time of 676 s.

In the case of `COc1ccc(S(=O)(=O)N2CC3CN(C(=O)C4CCCO4)CC(C2)O3)cc1` (configuration not stated), the RP-LC retention time worked out at 659 s.

For `CCC(CC)NC(=O)C1CCN(c2cn[nH]c(=O)c2)C1` (configuration not stated), the RP-LC retention time amounted to 612 s.

As to `COc1cc2ncc(C(=O)c3ccc(C)c(C)c3)c(N3CCN(C)CC3)c2cc1OC`, the RP-LC retention time is 570 s.

As to `COCCN1C(=O)[C@H]2CN(Cc3ccc(C(C)C)cc3)C[C@H]2C1=O`, the RP-LC retention time worked out at 674 s.

The compound `Cc1ccc(-c2nnc(-c3nc(NCc4cccnc4)c4ccccc4n3)o2)cc1` registered an RP-LC retention time of 676 s.

In turn, `CCCOc1ccc(-c2nc(N3CCC(C)CC3)c3ccccc3n2)cc1` came in with an RP-LC retention time of 1010 s.

As to `CCN(CC)CCNC(=S)Nc1ccc2nc(N3CCN(CC)CC3)cc(C)c2c1`, the RP-LC retention time worked out at 493 s.

On to `C=CCN1CCN(C(=O)[C@@H]2[C@H](c3cc(OC)c(OC)c(OC)c3)c3cc4c(cc3[C@H](O)[C@H]2CO)OCO4)CC1`, for which the RP-LC retention time turned out to be 604 s.

Compound `COc1ccc(NC(=O)c2c(O)c3cccnc3n(-c3ccc(OC)cc3)c2=O)cc1` registered an RP-LC retention time of 800 s.

Consider `O=C(NC1CC1)c1cccc(OCC2CCCN(C(=O)C3CCC3)C2)c1` (configuration not stated), for which the RP-LC retention time was 789 s.

Regarding `CN1CCC(OC2CCN(C(=O)c3ccc(Br)cc3)CC2)CC1`, the RP-LC retention time is 615 s.

`CCNC(=O)c1nnn(-c2cccc(Cl)c2)c1-c1cccnc1` yielded an RP-LC retention time of 740 s.

`Cc1ccc(C)c(N2CCN(c3ccnc(SCC(=O)NCc4ccc(F)cc4)n3)CC2)c1` showed an RP-LC retention time of 908 s.

The compound `Cc1ccc(N2CCN(S(=O)(=O)N(C)C)CC2)cc1Cl` yielded an RP-LC retention time of 990 s.

`O=C(Cn1cnc2nc(N3CCC(C(=O)NC4CC4)CC3)sc2c1=O)Nc1cc(F)cc(F)c1`: the RP-LC retention time was determined as 694 s.

`O=S(=O)(c1cc(-c2cc(C(F)(F)F)on2)cs1)N1CCN(c2cccc(Cl)c2)CC1` showed an RP-LC retention time of 1300 s.

`COc1ccc(-c2cc3nn(CC(=O)Nc4ccccc4)c(=O)n3c(C)n2)cc1`: the RP-LC retention time was found to be 661 s.

`Cc1cccc(NC(=O)CN2C(=O)CCS(=O)(=O)c3ccccc32)c1C` gave an RP-LC retention time of 760 s.

In turn, `COc1ccc(NC(=O)c2c[nH]c3nc(C)ccc3c2=O)cc1` yielded an RP-LC retention time of 776 s.

The compound `COc1ccc(-n2nc3c(N4CCCC(C(=O)NCCc5ccco5)C4)nnc(C)c3c2C)cc1` (configuration not stated) yielded an RP-LC retention time of 712 s.

For `O=C(NCC1CCN(C(=O)c2cc3ccccc3o2)CC1)c1cc(-c2ccccc2)on1`, the RP-LC retention time was 903 s.

As for `CC(=O)N1c2ccc(S(=O)(=O)N3CCCC3)cc2CC1C(=O)NCCCN1CCCCCC1` (configuration not stated), the RP-LC retention time was 619 s.

In the case of `CCn1cc(CC(=O)NC(C)c2ccc(F)cc2)c2cccnc21` (configuration not stated), the RP-LC retention time worked out at 732 s.

For `Cc1csc(-c2cc(S(=O)(=O)Nc3cccc(Cl)c3)c(C)s2)n1`, the RP-LC retention time was determined as 1060 s.

`COc1ccc(-c2nc(NCCC3=CCCCC3)c3ccccc3n2)cc1` returned an RP-LC retention time of 933 s.

The compound `COc1ccc(-c2nnc(-c3ccc(Cl)c(S(=O)(=O)N4CCCC4)c3)o2)cc1` showed an RP-LC retention time of 1060 s.

`COc1cc(NC(=O)C2CCN(C(=O)C3Sc4ccccc4NC3=O)CC2)cc(OC)c1OC` (configuration not stated) gave an RP-LC retention time of 707 s.

The compound `O=c1ccc(N2CCC(NS(=O)(=O)c3cccc(F)c3)C2)nn1CC1CC1` (configuration not stated) registered an RP-LC retention time of 773 s.

Compound `COc1ccc(NC(=O)N2CCC(n3c(-c4ccc(OC)cc4)nc4cccnc43)C2)cc1` (configuration not stated) had an RP-LC retention time of 709 s.

For `CCN1CCN(S(=O)(=O)c2cc(-c3nnc(-c4ccc(OC)c(OC)c4)o3)ccc2C)CC1`, the RP-LC retention time amounted to 1180 s.

In turn, `Cc1cc(C(F)(F)F)nn1CC(=O)N1CCC(n2c(C)cnc2C2CCC2)C1` (configuration not stated) gave an RP-LC retention time of 656 s.

The compound `COc1cccc(NS(=O)(=O)c2cc3n(c2)CCCNC3=O)c1` showed an RP-LC retention time of 632 s.

In turn, `O=C(CN1CCN(Cc2ccccc2)C1=O)NCc1cccc(Cl)c1` gave an RP-LC retention time of 822 s.

In turn, `CCc1ccc(CNC(=O)Cn2cnc3nc4c(cc3c2=O)CC(C)CC4)cc1` (configuration not stated) came in with an RP-LC retention time of 855 s.

For `CCCn1c(-c2cccc(C(=O)NCc3ccc(Br)cc3)c2)nc2cccnc21`, the RP-LC retention time worked out at 875 s.

On to `O=C(NCc1ccc(F)cc1)C1CCN(C(=O)c2ncn3c2COC(c2ccc(Cl)cc2)C3)CC1` (configuration not stated), for which the RP-LC retention time stood at 842 s.

For the compound `Cn1nc(C2CCN(C(=O)NCc3ccccc3)CC2)c2c1CCOC2`, the RP-LC retention time was determined as 668 s.

In the case of `O=C(CCc1c(-c2ccc(F)cc2)nc2ccccn12)Nc1ccccc1C(F)(F)F`, the RP-LC retention time is 691 s.

Compound `CCc1nc(-c2csc(S(=O)(=O)N3CCC(C(=O)Nc4ccccc4CC)CC3)c2)no1` gave an RP-LC retention time of 1010 s.

In turn, `COc1ccc(Nc2c(C(=O)N3CCC(C)CC3)cnc3nc(C)ccc23)cc1` showed an RP-LC retention time of 638 s.

Compound `CCn1nc(C)c2ccnc(N3CCC(C(=O)N4CCN(c5ccc(Cl)cc5)CC4)CC3)c21` registered an RP-LC retention time of 780 s.

Consider `COc1cccc(OC)c1CN1CCC2(CC1)CC(O)CCO2` (configuration not stated), for which the RP-LC retention time came out at 597 s.

Consider `O=C(NCCCN1CCCCC1)c1cc2n(n1)CCCN(Cc1ccc(Cl)cc1)C2=O`, for which the RP-LC retention time was 582 s.

Take `COCC1(O)CCOC2(CCN(C(=O)c3cccs3)CC2)C1` (configuration not stated): the RP-LC retention time turned out to be 621 s.

`COc1ccc(C(CNC(=O)c2cc(=O)c3cc(C)cc(C)c3o2)N(C)C)cc1` (configuration not stated) registered an RP-LC retention time of 675 s.

`Oc1ccc(Br)cc1-c1nc2ncccn2c1Nc1cccc(C(F)(F)F)c1` gave an RP-LC retention time of 1080 s.

`CCS(=O)(=O)c1ccc2c(c1)N(Cc1nc(-c3ccc(OC)c(OC)c3)no1)C(=O)CO2` displayed an RP-LC retention time of 817 s.

In turn, `CCN(Cc1ccccc1)C(=O)Cn1c(N2CCOCC2)nc(C)cc1=O` displayed an RP-LC retention time of 673 s.

The compound `Cc1ccc(-c2nnc(-c3cccc(S(=O)(=O)NC(C)C(=O)O)c3)o2)cc1` (configuration not stated) returned an RP-LC retention time of 784 s.

Compound `CCn1cc(-c2nc(CC(=O)Nc3ccc4c(c3)OCCO4)cs2)c2cccnc21` yielded an RP-LC retention time of 925 s.

For `Cc1ccc(Nc2nc(-c3ccccc3)c(CC(=O)O)s2)cc1`, the RP-LC retention time stood at 900 s.

Take `CC1=C(C(=O)Nc2ccccc2F)C(c2ccccc2Br)NC(=O)N1` (configuration not stated): the RP-LC retention time was 672 s.

In turn, `COc1ccc(-c2c(C(=O)Nc3ccc(OC)cc3OC)nc3ccccn23)cc1` registered an RP-LC retention time of 650 s.

As for `CCc1nc2c(c(=O)n1CC(=O)Nc1cc(C)ccc1C)CN(Cc1ccccc1)CC2`, the RP-LC retention time was found to be 679 s.

`CC(C)NC(=O)Cc1cn2cc(Br)ccc2n1` came in with an RP-LC retention time of 556 s.

The record behind these values is the METLIN SMRT retention time set (Domingo-Almenara et al. 2019).
